For one assay, the target named is T1, 15-PGDH in A549 cells (Homo sapiens, UniProt P15428).
T1 construct: endogenous in cells; host or cells: A549
T1 sequence (P15428 1-266): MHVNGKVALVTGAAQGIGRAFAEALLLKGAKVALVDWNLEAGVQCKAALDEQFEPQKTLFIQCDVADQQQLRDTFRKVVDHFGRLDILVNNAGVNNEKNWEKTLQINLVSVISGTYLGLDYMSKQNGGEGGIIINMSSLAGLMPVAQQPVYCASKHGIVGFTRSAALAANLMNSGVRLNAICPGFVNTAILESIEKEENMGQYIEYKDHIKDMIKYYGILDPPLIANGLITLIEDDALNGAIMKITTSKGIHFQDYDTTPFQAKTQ
Put plainly: A549 cellular 15-PGDH assay (PGE2 accumulation, HTRF). Type of assay: cell-based. The following applies: interleukin-stimulated, inhibitor 24 hrs, PGE2 by competitive HTRF, read-out: A549 Cell Assay IC50. The method in brief: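 IL-13-stimulated A549 lung carcinoma cells released PGE2, which was measured in supernatants by competitive HTRF with a Eu-cryptate anti-PGE2 antibody and labelled PGE2. Signal falls as PGE2 rises. IC50 values were derived from the binding data.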
Background: In TR-FRET formats the signal depends on donor and acceptor labels being close together.

In assay [1] the target is T2, human recombinant 15-PGDH (Homo sapiens, UniProt P15428).
T2 sequence (P15428 1-266): T1 sequence (P15428 1-266)
Put plainly: Recombinant 15-PGDH enzymatic inhibition assay (PGDH-Lumi, NADH signal). Type of assay: biochemical. The conditions noted are these: recombinant 15-PGDH; 15 min pre-incubation, 60 min reaction with PGE2 and NAD+, NADH signal. The method in brief: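 Recombinant 15-PGDH pre-incubated 15 min at room temperature with compound (22 concentrations, 2-fold dilutions) in 50 mM Tris pH 7.5, 0.01% Tween-20, […].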

Turning to `O[C@]1(c2cc3ccc(-c4cnc5[nH]nnc5c4)nc3s2)C[C@H](C(F)F)C1` [Compound C103C, cis-3-(difluoromethyl)-1-(6-(3H-[1,2,3]triazolo[4,5-b]pyridin-6-yl)thieno[2,3-b]pyridin-2-yl)cyclobutanol], the IC50 (in general, the midpoint of a concentration-inhibition curve) on 15-PGDH in A549 cells amounted to 2.43 nM; in assay [1], 0.302 nM.

In the case of `Cn1cc2cc(-c3ccc4nc([C@]5(O)C[C@@H](C(F)(F)F)C5)sc4n3)cnc2n1` [Compound C74C, cis-1-(5-(2-methyl-2H-pyrazolo[3,4-b]pyridin-5-yl)[1,3]thiazolo[5,4-b]pyridin-2-yl)-3-(trifluoromethyl)cyclobutanol], the IC50 at 15-PGDH in A549 cells stood at 0.192 nM; in assay [1] it was 0.458 nM.

For `Cc1cn2ccc(-c3ccc4cc([C@@H](O)C5CC(F)(F)C5)sc4n3)cc2n1` (single isomer, unassigned) [Compound B55S], the values for the IC50 (at 15-PGDH in A549 cells; in assay [1]) were 11.8 nM and 2.64 nM, respectively.

As to `Cn1cc2cc(-c3ccc4cc([C@H](O)C5CC5)sc4n3)cnc2n1` (single isomer, unassigned) [Compound B16R], the IC50 at 15-PGDH in A549 cells was 0.149 nM; in assay [1], 0.325 nM.

On to `Cn1cc2cc(-c3ncc4cc([C@]5(O)C[C@@](C)(C#N)C5)sc4n3)cnc2n1` (single isomer, unassigned) [Compound C96C, cis-3-hydroxy-1-methyl-3-(2-(2-methyl-2H-pyrazolo[3,4-b]pyridin-5-yl)thieno[2,3-d]pyrimidin-6-yl)cyclobutanecarbonitrile], for which the IC50 at 15-PGDH in A549 cells came to 2.33 nM; in assay [1] it was 0.755 nM.

Take `Cn1ccc2cc(-c3ccc4cc([C@H](O)C5CC(F)(F)C5)sc4n3)ccc2c1=O` (single isomer, unassigned) [Compound B50R]: the IC50 amounted to 0.52 nM at 15-PGDH in A549 cells and 0.343 nM in assay [1].

With `Cn1cc2cc(-c3ccc4cc([C@]5(O)C[C@@H](C6CC6)C5)sc4n3)cnc2n1` (single isomer, unassigned) [Compound C62C, cis-3-cyclopropyl-1-(6-(2-methyl-2H-pyrazolo[3,4-b]pyridin-5-yl)thieno[2,3-b]pyridin-2-yl)cyclobutanol], the values for the 50% inhibitory concentration (IC50) (on 15-PGDH in A549 cells; in assay [1]) were 0.0321 nM and 0.366 nM, respectively.

As for `COCC(O)c1cc2ccc(-c3cnc4nn(C)cc4c3)nc2s1` (stereo not drawn) [Compound B32, 2-methoxy-1-(6-(2-methyl-2H-pyrazolo[3,4-b]pyridin-5-yl)thieno[2,3-b]pyridin-2-yl)ethanol], the IC50 at 15-PGDH in A549 cells was found to be 7.49 nM; in assay [1] it was 1.18 nM.

Turning to `Cn1cc2cc(-c3ccc4cc([C@]5(O)C[C@@H](C(F)F)C5)sc4n3)cnc2n1` [Compound C30C, cis-3-(difluoromethyl)-1-(6-(2-methyl-2H-pyrazolo[3,4-b]pyridin-5-yl)thieno[2,3-b]pyridin-2-yl)cyclobutanol], the IC50 came to 0.137 nM on 15-PGDH in A549 cells and 0.278 nM in assay [1].

Regarding `Cn1nnc2cc(-c3ncc4cc([C@]5(O)C[C@@H](C(F)(F)F)C5)sc4n3)cnc21` [Compound C95C, cis-1-(2-(3-methyl-3H-[1,2,3]triazolo[4,5-b]pyridin-6-yl)thieno[2,3-d]pyrimidin-6-yl)-3-(trifluoromethyl)cyclobutanol], the values for the IC50 (on 15-PGDH in A549 cells; in assay [1]) were 9.76 nM and 1.26 nM, respectively.

On to `Cn1nnc2cc(-c3ccc4cc(C5(O)CC(F)(F)C5)sc4n3)cnc21` [Compound C51, 3,3-difluoro-1-(6-(3-methyl-3H-[1,2,3]triazolo[4,5-b]pyridin-6-yl)thieno[2,3-b]pyridin-2-yl)cyclobutanol], for which the IC50 is 1.1 nM on 15-PGDH in A549 cells and 2.19 nM in assay [1].

As for `Cc1nc2ccc(-c3ccc4cc(C5(O)CC(F)(F)C5)sc4n3)cc2o1` [Compound C39, 3,3-difluoro-1-(6-(2-methyl-1,3-benzoxazol-6-yl)thieno[2,3-b]pyridin-2-yl)cyclobutanol], the IC50 was found to be 2.87 nM on 15-PGDH in A549 cells and 10 nM in assay [1].

For `CC(C)C(O)c1cc2ccc(-c3cnc4nn(C)cc4c3)nc2s1` (stereo not drawn) [Compound B24, 2-methyl-1-(6-(2-methyl-2H-pyrazolo[3,4-b]pyridin-5-yl)thieno[2,3-b]pyridin-2-yl)propan-1-ol], the IC50 at 15-PGDH in A549 cells is 0.579 nM; in assay [1], 0.517 nM.

As to `Cn1cc2cc(-c3ncc4cc([C@]5(O)C[C@@H](C(F)(F)F)C5)sc4n3)cnc2n1` [Compound C71C, cis-1-(2-(2-methyl-2H-pyrazolo[3,4-b]pyridin-5-yl)thieno[2,3-d]pyrimidin-6-yl)-3-(trifluoromethyl)cyclobutanol], the IC50 worked out at 0.142 nM on 15-PGDH in A549 cells and 0.54 nM in assay [1].

With `Cn1nnc2cc(-c3ccc4cc([C@H](O)C5CC(F)(F)C5)sc4n3)cnc21` [Compound B82R, (R)-(3,3-difluorocyclobutyl)(6-(3-methyl-3H-[1,2,3]triazolo[4,5-b]pyridin-6-yl)thieno[2,3-b]pyridin-2-yl)methanol], the figures for the IC50 (at 15-PGDH in A549 cells; in assay [1]) were 0.0124 nM and 0.398 nM, respectively.

For the compound `Cn1cc2cc(-c3ccc4cc([C@H](O)[C@H]5CC5(F)F)sc4n3)cnc2n1` (single isomer, unassigned) [Compound B85RR], the IC50 at 15-PGDH in A549 cells was 0.704 nM; in assay [1] it was 0.47 nM.

Turning to `Cn1cc2cc(-c3ccc4c(N)c([C@H](O)C5CC(F)(F)C5)sc4n3)cnc2n1` (single isomer, unassigned) [Compound B95R], the concentration for half-maximal inhibition (IC50) on 15-PGDH in A549 cells came to 1.64 nM; in assay [1], 1.21 nM.

As for `Cn1cc2cc(-c3ccc4ccc(C5(O)CC(C)(C)C5)cc4n3)cnc2n1` [Compound D2, 3,3-dimethyl-1-(2-(2-methyl-2H-pyrazolo[3,4-b]pyridin-5-yl)-7-quinolinyl)cyclobutanol], the results for the IC50 (at 15-PGDH in A549 cells; in assay [1]) were 268 nM and 537 nM, respectively.

Take `Cc1c([C@H](O)C2CCOCC2)sc2nc(-c3cnc4nn(C)cc4c3)ccc12` (single isomer, unassigned) [Compound B90R]: the IC50 was found to be 0.857 nM at 15-PGDH in A549 cells and 0.952 nM in assay [1].

As to `Cn1cc2cc(-c3ccc4cc([C@@]5(O)CCC5(C)C)sc4n3)cnc2n1` (single isomer, unassigned) [Compound C65R], the IC50 at 15-PGDH in A549 cells turned out to be 3.45 nM; in assay [1], 32.6 nM.

For the compound `Cc1c([C@@H](O)C2CCOCC2)sc2nc(-c3cnc4nn(C)cc4c3)ccc12` (single isomer, unassigned) [Compound B90S], the IC50 on 15-PGDH in A549 cells was determined as 237 nM; in assay [1], 488 nM.

`CO[C@]1(C(F)(F)F)C[C@@](O)(c2cc3cnc(-c4cnc5nn(C)cc5c4)nc3s2)C1` (single isomer, unassigned) [Compound C113C, cis-3-methoxy-1-(2-(2-methyl-2H-pyrazolo[3,4-b]pyridin-5-yl)thieno[2,3-d]pyrimidin-6-yl)-3-(trifluoromethyl)cyclobutanol]: the IC50 at 15-PGDH in A549 cells turned out to be 7.19 nM; in assay [1] it was 1.42 nM.

Turning to `Cn1cc2cc(-c3ccc4cc([C@H](O)C5COC5)sc4n3)cnc2n1` (single isomer, unassigned) [Compound B28R], the results for the IC50 (at 15-PGDH in A549 cells; in assay [1]) were 0.16 nM and 0.424 nM, respectively.

In the case of `Cn1cc2cc(-c3ccc4nc([C@]5(O)C[C@@H](OC(F)(F)F)C5)sc4n3)cnc2n1` [Compound C105C, cis-1-(5-(2-methyl-2H-pyrazolo[3,4-b]pyridin-5-yl)[1,3]thiazolo[5,4-b]pyridin-2-yl)-3-(trifluoromethoxy)cyclobutanol], the IC50 on 15-PGDH in A549 cells came to 0.788 nM; in assay [1] it was 0.294 nM.

Values taken from patent US20240409557A1, “5,6-FUSED AND 6,6-FUSED BICYCLIC ALCOHOLS AND ETHERS AND COMPOSITIONS FOR USE AS 15-PROSTAGLANDIN DEHYDROGENASE MODULATORS” (AMGEN INC., priority 2023, published 2024).
